Laboratory results published in patent US20230302022A1, “PREVENTING OR MITIGATING CHEMOTHERAPY INDUCED ALOPECIA USING VITAMIN D” (priority 2016, published 2023).
“Also recorded” adds a separate entry of the source.

Experiments:
[1] = tested on: HEKa cells; assay: HEKa keratinocyte growth / viability assay, with and without chemotherapy drugs; format: cell-based, human
Experimental: All experiments were conducted in 96-well plate format. Each well contained the same amount of HEKa cells in about 100 μL of media (usually between 2,000-5,000 cell/well). Calcitriol was dissolved in ethanol to make a stock solution. The stock solution was serially diluted 1:2 in the growth media, covering a range of between 4.0 μg/mL to about 15.5 ng/mL (9 test concentrations). […] All experiments were conducted in duplicates.
In these experiments, a selected commercial drug was serially diluted, starting at a concentration 4-times higher than the final desired concentration for cell incubation.
(§1) The drug treatment period was usually three days. At the end of the three days, the background OD of the 96-well plate was read at 280 nm, before 20 μL of the “Substrate Cell Titer 96 Aqueous One Solution Reagent” (Promega) was added to each well. The plate was returned to the 37° C. incubator, and its OD at 490 nm was read each hour until an OD of approximately 1.5 was reached. The net OD increase was calculated by subtracting the pre-substrate OD reading.
The impact of the drug on the cells was calculated by comparing the OD at different concentrations in relation to the OD of the control wells (without the drug). The results of the Net OD as a function of drug concentration was plotted and used to determine ED50 values.
(§2) Then these pretreated cells were utilized to set up the cell based assay.
Three commonly used chemotherapy drugs (doxorubicin, cisplatin and erlotinib) were selected to evaluate calcitriol treated cells. […] In these experiments, the commercial drugs were serially diluted, starting at a concentration 4-times higher than the final desired concentration for cell incubation.

[2] = tested on: SkBr-3 (breast adenocarcinoma cancer, Her2 overexpressed); assay: Cell growth / viability assay, SkBr-3; format: cell-based
Experimental: The drug treatment period was usually three days. At the end of the three days, the background OD of the 96-well plate was read at 280 nm, before 20 μL of the “Substrate Cell Titer 96 Aqueous One Solution Reagent” (Promega) was added to each well. […] The net OD increase was calculated by subtracting the pre-substrate OD reading. The impact of the drug on the cells was calculated by comparing the OD at different concentrations in relation to the OD of the control wells (without the drug). The results of the Net OD as a function of drug concentration was plotted and used to determine ED50 values.

[3] = tested on: MCF-7 (breast cancer with p53 mutation); assay: Cell growth / viability assay, MCF-7; format: cell-based
Experimental: as §1
The impact of the drug on the cells was calculated by comparing the OD at different concentrations in relation to the OD of the control wells (without the drug).
as §2

[4] = tested on: C3H/HeJ mouse; assay: C3H/HeJ model of alopecia areata; format: in vivo; details: 0.2 μg for 15 days, observed 30 days
From the text: Neonatal Rat model and PCA model. Sprague Dawley rats were purchased from Charles River Laboratories (Wilmington, MA). C3H/HeJ mouse were purchased from Jackson Laboratories (Bar Harbour, ME). Rodents were housed and fed according to NIH guidelines. […] Uskokovic (Hoffman-La Roche, Nutley, NJ). For experiments involving C3H/HeJ mice, 1,25(OH)2D3 was purchased from Sigma (St. Louis, M0). C3H/HeJ Model of Abpecia Areata. Retired breeders (8 months of age) were observed daily for the development of AA lesions.

[5] = Preliminary animal toxicology study; format: in vivo; details: dose of about 100 μg
[6] = Chemical stability; format: physicochemical
[7] = tested on: Long Evans and Sprague Dawley rats; assay: Chemotherapy-induced alopecia (CIA) in the neonatal rat, topical calcitriol formulation; format: in vivo
[8] = tested on: BALB/c mice; details: cited from earlier work
[9] = Quantification of calcitriol in ex vivo porcine skin layers after 7 days of dermal administration; details: for Stratum Corneum, Calcitriol Recovered: 10 μg/mL, mean ± SD
Experimental: The placebo and test articles were administered dermally twice daily approximately 6 hours apart for 7 days during the study. The dose concentrations were 0, 1, 3, 10, 30, and 100 μg/mL, and administered at an application rate of 4 mg/cm^2 (equivalent to 144 mg or 166 μL of test solution). Prior to initiation of administration (Days −4 and −5 for Groups 1 and 2, respectively), the hair was clipped from the application sites using an electric clipper. Care was taken to avoid abrading the skin. The dorsal surface of each animal was divided into five application sites for Group 1 and two application sites for Group 2. Each application site was approximately 6×6 cm with at least a 2 cm space between each site. The placebo and test article formulations were uniformly applied over the specified application site with a glass stirring rod or appropriate instrument. Prior to dosing, the residual test article from the previous dose was gently removed using a soft paper towel (i.e., WyPall®) moistened with tap water.
At the end of the study, the skin was reflected from a ventral midline incision, and sections of treated and untreated skin were collected and preserved. Sections of each 6×6 cm dosing site were first thoroughly surface washed with a mild soap and water mixture (e.g., 1% Ivory Soap in water or equivalent) to remove any residual topical test formulation. The washed skin sections were then wiped clean with ethanol, and were excised down to and including the adipose layer. If the area to be excised is larger than the dosed area, the dosed area was demarked with indelible ink to delineate the skin area that was dosed. The 1.5 cm×1.5 cm sections were laid flat, wrapped in two layers of Saran wrap (or equivalent) and flash frozen in liquid nitrogen. The samples were stored at −70° C. and shipped on dry ice via overnight courier for analysis. Each skin section was identified as appropriate (e.g., animal identification, study number, date, etc.).
Upon arrival at the analysis site, skin sections were placed in water tight plastic bag and thawed by emersion in warm water (˜30° C.-35° C.). Each skin section was gently rinsed with distilled de-ionized water to remove any residual test article and blood. All subcutaneous tissue (e.g., adipose) was removed by manual scalpel ablation. Within the central region of the dosed area, four individual 1 cm^2 circles (replicates) were demarked, and each site was subsequently identified and the actual area recorded. […] The skin sections were weighed and the weight recorded. […]
Following tape stripping, the skin was separated into epidermis (sans stratum corneum, simply referred to herein after as “epidermis”) and dermis by heat exposure to 60° C. for approximately 1-1.5 minutes. […] The epidermis and dermis were weighed and the weight recorded. […]

[10] = 0.1 μg/mL calcitriol, low dosage levels

For `C=C1/C(=C\C=C2/CCC[C@]3(C)[C@@H]([C@H](C)CCCC(C)(C)O)CC[C@@H]23)C[C@@H](O)C[C@@H]1O` [Calcitriol, (5Z,7E)-9,10-secocholesta-5,7.10(19Hriene-1 a,33.25-triol], the “protective effect against 5-FU” value ([1]; 0.1 μg/mL calcitriol) was “protects; also recorded: mild protective effect; also recorded: some levels of protection”, the “protective effect against doxorubicin” value ([1]; 0.1 μg/mL calcitriol) was “did not appear to provide a significant protective effect” and the “protective effect against gemcitabine” value ([1]; 0.1 μg/mL calcitriol) was “mild protective effect”. The “protective effect against irinotecan” value ([1]; 0.1 μg/mL calcitriol) was “positive protective effect”, the “protective effect against paclitaxel (Paxlitaxol)” value ([1]; 0.1 μg/mL calcitriol) was “some protective effects” and the “protective effect against tamoxifen” value ([1]; 0.1 μg/mL calcitriol) was “weak”. For the same molecule, the “HEKa growth after prolonged calcitriol exposure” value ([1]; 0.1 μg/mL calcitriol for two cell passages) was “stopped growing”, the protection against carboplatin [1, 10] was “moderate level of protection” and the protection against cisplatin [1, 10] was “moderate level of protection”. For the same molecule, the “protective effect against kinase inhibitor drugs (erlotinib, gefitinib, sorafenib, dasatinib, staurosporin)” value ([1]; 0.1 μg/mL calcitriol, low drug dosage levels) was “protected the HEKa cells”, the “interaction (synergy) between calcitriol and commercial drugs” value ([1]; 0.1 μg/mL calcitriol, 5-FU, doxorubicin, tamoxifen, irinotecan, paclitaxel, carboplatin, staurosporin, vincristine, cisplatin, erlotinib, gemcitabine, imatinib, gefitinib, sorafenib, dasatinib) was “no interaction” and the “chemoprotective effect: pre-treatment group vs simultaneous treatment group” value ([1]; 0.1 μg/mL calcitriol, doxorubicin, cisplatin, erlotinib) was “nearly identical”. For the same molecule, the “stimulation of HEKa cell growth” value ([1]; lowest levels of calcitriol (tested range about 0.008-2.0 μg/mL)) was 10-20%, the “calcitriol concentration at which HEKa cell growth is inhibited” value ([1]; tested range about 0.008-2.0 μg/mL) was no less than 1.0 µg/mL and the “effect of calcitriol on cell growth” value [2] was “no significant growth promoting or growth inhibiting effects”. The “effect of calcitriol on the cytotoxic effect of Doxorubicin” value [2] was “does not appreciably alter; also recorded: did not appear to appreciably alter”, the “effect of calcitriol on the cytotoxic effect of Doxorubicin” value ([3]; MCF-7) was “did not appear to appreciably alter” and the “response to doxorubicin, cisplatin and erlotinib after calcitriol exposure” value ([3]; MCF-7, 0.1 μg/mL calcitriol for two passages) was “did not alter”. The “regrowth of hair in alopecic lesions” value [4] was “No regrowth of hair”, the dermal irritation [5] was “no dermal irritation” and the “epidermal / dermal penetration” value [5] was “excellent epidermal penetration without substantial dermal penetration”. For the same molecule, the “Chemical Stability” value [6] was “Stable at room temperature”, the “protection from cytarabine-induced alopecia” value [7] was “protective effect” and the “protective effect in tumor-bearing female mice” value ([8]; EMT-6, vs female mice without tumor and tumor-bearing males) was “more efficient protective effect”. For the same molecule, the “protective effect in tumor-bearing male mice” value ([8]; EMT-6 tumor cells) was “diminished”, the “degree of CIA” value ([8]; male BALB/c mice, topical 5 days prior to cyclophosphamide) was “significantly reduced the degree of CIA in a dose-dependent manner” and the “apoptosis staining pattern vs unexposed mice” value ([8]; mouse, in vivo) was “no significant differences in apoptosis staining pattern”. For the same molecule, the “skin layers in which calcitriol was measurable” value ([9]; 1-100 μg/mL, exception: dermis at 100 μg/mL in a single male minipig) was “measurable in most stratum corneum and epidermal samples, but not in the dermal samples”, the “applied dose correlation to epidermal tissue level” value ([9]; 3 to 100 μg/mL applications) was “near linear increase” and the “Stratum Corneum, Calcitriol Recovered” value ([9]; Female Minipigs) was 1.65 ± 1.80 (3) ng/cm^2. For the same molecule, the “Stratum Corneum, Calcitriol Recovered” value ([9]; Male Minipigs) was 59.6 ± 14.1 (3) ng/cm^2.
